Source: US20250353828A1, “SUBSTITUTED BIARYL ENDOCHIN-LIKE QUINOLONES WITH ENHANCED ANTIPARASITIC ACTIVITY” (Oregon Health & Science University, priority 2022, published 2025)
Where two headings read alike, the source gives them in different places.

Tests used:
[1] = system: P. falciparum D6 strain (drug sensitive); assay: In vitro antiplasmodial activity, SYBR Green I assay, D6 strain; type: cell-based, Plasmodium falciparum; details: for IC50: Plasmodium falciparum, read-out: P. falciparum IC50 values, nM D6
Description: (§1) Rationale for Synthesis of a 3-Biaryl Version of ELQ-300. […] All of this information is stored in a database with information relating to chemical structure, physical chemical properties, cross resistance patterns, mammalian cell cytotoxicity, enzyme inhibitor profiles, and synthesis details. […] We employed the SyBr Green assay and the plates were incubated for 72 hours before harvesting^18, 19. […] Stock solutions were freshly prepared in DMSO.
(§2) Plasmodium falciparum Culture. Laboratory strains of P. falciparum were cultured in human erythrocytes by standard methods. The parasites were grown in culture medium with fresh human erythrocytes maintained at 2% hematocrit at 37° C. in low-oxygen conditions (5% O2, 5% CO2, […] balance N2). […] Cultures were maintained at less than 10% parasitemia by transfer of infected cells to fresh erythrocytes and culture medium every 3 or 4 days.
(§3) In vitro drug susceptibility assays. SYBR green I assay. In vitro antiplasmodial activity was assessed using a published SYBR Green I fluorescence-based method. The drugs were added to 96-well plates using 2-fold serial dilutions in complete medium. […] Asynchronous P. falciparum parasites were diluted with uninfected erythrocytes and added to the wells to give a final culture volume of 100 μl at 2% hematocrit and 0.2% parasitemia. […] The parasites were then lysed by adding 100 μl of SYBR green I lysis buffer containing 0.2 μl/ml SYBR green I dye (10,000×) in 20 mM Tris (pH 7.5), 5 mM EDTA, 0.008% (wt/vol) saponin, and 0.08% (vol/vol) Triton X-100. The plates were incubated at room temperature for an hour in the dark. […] If the IC50 value fell outside of the initial tested range then the range was adjusted up or down and the assay was repeated.

[2] = system: P. falciparum Dd2 strain (multidrug resistant); assay: microbe, parasite or virus in culture; type: cell-based, Plasmodium falciparum; details: read-out: P. falciparum IC50 values, nM Dd2
Description: as §1, §2, §3

[3] = system: P. falciparum Tm90-C2B (atovaquone-resistant clinical isolate); assay: In vitro antiplasmodial activity, SYBR Green I assay, Tm90-C2B; type: cell-based; details: Plasmodium falciparum, read-out: P. falciparum IC50 values, nM Tm90-C2B
Description: as §1, §2, §3

[4] = system: P. falciparum D1 clone (ELQ-300 resistant); assay: microbe, parasite or virus in culture; type: cell-based; details: Plasmodium falciparum, 72 h, read-out: P. falciparum IC50 values, nM D1
[5] = system: P. yoelii (Kenya Strain) blood stage infection in mice; assay: 4-day Peters test against murine malaria; type: in vivo; details: for 4-day Peters Test Results ED90 / 4-day Peters Test Results NRD (non-recrudescence dose) / 4-day Peters Test Results ED50: P. yoelii in mice, oral gavage in PEG400 on Days 1-4, prodrugs dosed on molar equivalency to parent drug
Description: On Day 5 a drop of blood was taken from the tail and a blood smear was prepared, fixed with methanol, and stained with Giemsa. The operator then examined the stained smear microscopically to determine percent parasitemia. Dosages of 0.0025, 0.005, 0.01, 0.03, 0.1, 0.3, 1.0 and 10 mg/kg/day were used for the experiment. […] In this model animals were inoculated exactly as for the 4-day test on Day 0 however drug was administered only on Day 1 while the operator made smears on Day 5 and again weekly thereafter for animals that remained aparasitemic. Animals that remained aparasitemic out to […] were scored as cures.
(§4) In Vivo Efficacy against Murine Malaria. The P. yoelii 4-day test monitors suppression of patent infection in female CF1 mice. The test began with the inoculation (iv) of parasitized erythrocytes (3.5×10^4/P. yoelli) (from a donor animal) on the first day of the experiment (D0). […] Initially the 3-biaryl-ELQs were tested at doses of 0.0025, 0.005, 0.01, 0.03, 0.1, 0.3, 1.0 and 10 mg/kg/day, including a vehicle-only (PEG400) control. After completion of drug treatment, a blood sample was collected (by pricking the tail vein) for determination of parasite burden beginning on the day after the final dose (D5). Percent parasitemia is assessed by direct microscopic analysis of Giemsa-stained blood smears. […] Animals with observable parasitemia following the experiment were euthanized; animals cleared of parasites from the bloodstream were observed daily with assessment of parasitemia performed weekly until day 30, at which point the animal(s) were scored as cured of infection. […] Non-linear regression analysis is used for objective determination of ED50's and ED90's from the accumulated data as well as the Non-Recrudescence Dose (NRD). The 4-day test protocol was reviewed and approved by the local IACUC board at the Portland VA Medical Center. Experiments were performed with 4 mice per group to ensure statistical accuracy.

[6] = system: P. yoelii blood stage infection in mice; assay: In vivo single-dose cure against murine malaria; details: for Single dose cure: lowest single dose that cures all 4 mice, P. yoelii, prodrugs dosed on molar equivalency to parent drug
Description: Animals that remained aparasitemic out to […] were scored as cures.
In Vivo Single-Dose Efficacy against Murine Malaria. The effectiveness of selected 3-biarylELQs and prodrugs was assessed vs. the blood stage infection for single dose cures. Mice are infected iv with 3.5×10^4 P. yoelii infected RBCs as described for the 4-day test above. Drug administration occurred on the day after inoculation (Day 1). Test agents were dissolved in PEG-400 and administered ig once. On the 5th day blood films were prepared and % parasitemia was assessed. Animals remaining parasite-free for 30 days after drug administration were considered cured. The initial dosing range was: 0.5, 1, 2.5, 5, 10 mg/kg, including a control. Experiments were performed with 4 mice per group to ensure statistical accuracy. The reported parameter for these studies is the lowest single dose that provides a cure to all 4 animals in the group.

[7] = system: P. falciparum cytochrome bc1 complex; assay: biochemical; details: based on enzyme inhibitory activity
Excerpt: (§5) Isolation of Plasmodium falciparum Mitochondria and Ubiquinol-Cytochrome c Oxidoreductase Assay.

[8] = HepG2 cytotoxicity, TiterGlo ATP luminescence, galactose medium; type: cell-based, human; details: human
Description: (§6) […]. Of course, enhanced potency is desirable only if unaccompanied by enhanced toxicity. […] […]. The incubation period for these experiments was 48 hours.

[9] = molecular target: T1, P. falciparum cytochrome bc1 complex (Plasmodium falciparum, UniProt Q02768); details: data taken from Nilsen et al., 2013 (a) or Frueh et al., 2017 (b); cited from earlier work
T1 construct: endogenous in cells
T1 sequence (Q02768 1-376): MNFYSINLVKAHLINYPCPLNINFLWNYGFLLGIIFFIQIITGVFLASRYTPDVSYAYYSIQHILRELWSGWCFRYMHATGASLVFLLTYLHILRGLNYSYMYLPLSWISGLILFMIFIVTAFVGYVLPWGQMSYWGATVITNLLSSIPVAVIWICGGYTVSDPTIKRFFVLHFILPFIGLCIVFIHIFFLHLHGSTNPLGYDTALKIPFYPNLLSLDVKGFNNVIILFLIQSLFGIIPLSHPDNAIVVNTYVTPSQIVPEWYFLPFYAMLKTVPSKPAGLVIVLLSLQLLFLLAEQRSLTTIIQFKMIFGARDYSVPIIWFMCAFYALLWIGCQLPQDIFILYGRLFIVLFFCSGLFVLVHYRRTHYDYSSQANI

[10] = molecular target: T2, human liver cytochrome bc1 complex (Homo sapiens, UniProt P00156); details: data taken from Nilsen et al., 2013 (a) or Frueh et al., 2017 (b); cited from earlier work
T2 construct: human host cytochrome bc1 complex isolated from human liver tissue; from tissue; host or cells: human liver tissue

[11] = molecular target: T1, P. falciparum cytochrome bc1 complex; assay: biochemical; details: cytochrome bc1 activity from P. falciparum mitochondria
Excerpt: as §5

[12] = molecular target: T2, human liver cytochrome bc1 complex; assay: Inhibition of human cytochrome bc1 complex; type: biochemical; details: complex isolated from human liver tissue
Excerpt: Human Cytochrome bc1 Assays.

HepG2 cells = assay: HepG2 cytotoxicity, TiterGlo ATP luminescence, galactose medium; type: cell-based, human; details: medium with galactose instead of glucose
Description: as §6

[13] = Murine microsomal metabolic stability
Description: Ketanserin served as an internal standard for the metabolic rate of a known drug with known intermediate stability.
Imipramine or Osalmid were used as internal standards, and ketanserin was used as a control drug with intermediate stability.

[14] = Appearance, behaviour and weight observations in the in vivo efficacy-testing model; details: mice, at any dose level of the efficacy tests
Description: as §4

[15] = D6 strain, 72 h incubation, averages of quadruplicate with (95% confidence intervals)
[16] = Tm90-C2B strain, 72 h incubation, averages of quadruplicate with (95% confidence intervals)

## COc1cc2[nH]c(C)c(-c3ccc(Oc4ccc(OC(F)(F)F)cc4)cc3)c(=O)c2cc1Cl [ELQ-300, reference compound]
[1]; [15]
  IC50: 3.3 nM
[2]; Dd2 strain, 72 h incubation, averages of quadruplicate with (95% confidence intervals)
  IC50: 4.2 nM
[3]; [16]
  IC50: 2.5 nM
[4]
  IC50: 168 nM
[5]
  4-day Peters Test Results ED90: 0.06 mg/kg/day
  4-day Peters Test Results NRD (non-recrudescence dose): 1.0 mg/kg/day
[6]; dose on Day 1
  Single dose cure: >25 mg/kg/day
[7]
  Selectivity Index Human/Pf cyt. bc1: ≥18,000
[8]
  EC50 at 48 h: > 10000 nM
[9]
  IC50: 0.56 nM
[10]
  IC50: > 10000 nM

## COc1cc2[nH]c(C)c(-c3ccc(-c4ccc(OC(F)(F)F)cc4)cc3)c(=O)c2cc1Cl [ELQ-596, 6-chloro-7-methoxy-2-methyl-3-(4′-(trifluoromethoxy)-[1,1′-biphenyl]-4-yl)quinolin-4(1H)-one]
[1]; D6 and Dd2 strains as well as C2B
  improvement of IC50 values over ELQ-300: 8- to 10 fold
[1]; D6, 72 h
  IC50: 0.3 nM
[2]; Plasmodium falciparum, DD2, 72 h
  IC50: 0.4 nM
[3]; TM90, 72 h
  IC50: 0.2 nM
[5]
  4-day Peters Test Results ED50: 0.01 mg/kg/day
  4-day Peters Test Results ED90: 0.021 mg/kg/day
  4-day Peters Test Results NRD (non-recrudescence dose): 0.3 mg/kg/day
[11]
  IC50: 0.1 nM
[12]
  IC50: > 10000 nM
[8]; HepG2, galactose medium, 48 hours, read-out: EC50 (cytotoxicity)
  EC50 at 48 h: > 10000 nM
HepG2 cells
  EC50: > 10000 nM
[13]; mouse, pooled liver microsomes, pH 7.4
  CLint scaled at 1 μM: 1.15 mL/min/kg
[13]; mouse, pooled liver microsomes, pH 7.4, T1/2 (minutes), murine liver microsomes 0.5 mg/ml, 37° C., NADPH, 45 minutes
  half-life at 1 μM: > 66.7 h
[13]; murine liver microsomes 0.5 mg/ml, 37° C., NADPH, 45 minutes
  T1/2 (minutes): 4,260 minutes

## CCOC(=O)OCOc1c(-c2ccc(-c3ccc(OC(F)(F)F)cc3)cc2)c(C)nc2cc(OC)c(Cl)cc12 [ELQ-598, ((6-chloro-7-methoxy-2-methyl-3-(4′-(trifluoromethoxy)-[1,1′-biphenyl]-4-yl)quinolin-4-yl)oxy)methyl ethyl carbonate]
[1]; [15]
  IC50: 1.5 nM
[3]; [16]
  IC50: 0.8 nM
[5]; 4-day test
  ED50, ED90 and NRD lower than for ELQ-300 and ELQ-331: roughly 3 fold
[5]
  4-day Peters Test Results ED50: 0.006 mg/kg/day
  4-day Peters Test Results ED90: 0.01 mg/kg/day
  4-day Peters Test Results NRD (non-recrudescence dose): 0.1 mg/kg/day
[6]; P. yoelii in mice, dose on Day 1, lowest dose tested to date, as parent drug equivalent
  lowest fully protective single dose cure: 0.5 mg/kg
[6]; blood stage malaria infections in mice
  more effective as a single dose cure compared directly to ELQ-331: at least 6 times
[6]; dose on Day 1
  Single dose cure: ≤0.5 mg/kg/day
[6]; same result expressed as mass of prodrug
  lowest fully protective single dose cure, mg/kg of prodrug: 0.6 mg/kg
[11]
  P. falciparum cytochrome bc1, nM: only feeble inhibitory activity
[12]
  IC50: > 10000 nM
[8]
  EC50 at 48 h: > 10000 nM
[14]
  appearance, behavioral or weight changes after dosing: no appearance, behavioral or weight changes
